The values that follow come from patent US4276378A, “High sensitivity assays for angiotensin converting enzyme” (priority 1977, dated 1981).

Data set [1] deals with T1, Guinea pig serum ACE (Cavia porcellus, UniProt H0UWL7).
T1 sequence (H0UWL7 33-1234): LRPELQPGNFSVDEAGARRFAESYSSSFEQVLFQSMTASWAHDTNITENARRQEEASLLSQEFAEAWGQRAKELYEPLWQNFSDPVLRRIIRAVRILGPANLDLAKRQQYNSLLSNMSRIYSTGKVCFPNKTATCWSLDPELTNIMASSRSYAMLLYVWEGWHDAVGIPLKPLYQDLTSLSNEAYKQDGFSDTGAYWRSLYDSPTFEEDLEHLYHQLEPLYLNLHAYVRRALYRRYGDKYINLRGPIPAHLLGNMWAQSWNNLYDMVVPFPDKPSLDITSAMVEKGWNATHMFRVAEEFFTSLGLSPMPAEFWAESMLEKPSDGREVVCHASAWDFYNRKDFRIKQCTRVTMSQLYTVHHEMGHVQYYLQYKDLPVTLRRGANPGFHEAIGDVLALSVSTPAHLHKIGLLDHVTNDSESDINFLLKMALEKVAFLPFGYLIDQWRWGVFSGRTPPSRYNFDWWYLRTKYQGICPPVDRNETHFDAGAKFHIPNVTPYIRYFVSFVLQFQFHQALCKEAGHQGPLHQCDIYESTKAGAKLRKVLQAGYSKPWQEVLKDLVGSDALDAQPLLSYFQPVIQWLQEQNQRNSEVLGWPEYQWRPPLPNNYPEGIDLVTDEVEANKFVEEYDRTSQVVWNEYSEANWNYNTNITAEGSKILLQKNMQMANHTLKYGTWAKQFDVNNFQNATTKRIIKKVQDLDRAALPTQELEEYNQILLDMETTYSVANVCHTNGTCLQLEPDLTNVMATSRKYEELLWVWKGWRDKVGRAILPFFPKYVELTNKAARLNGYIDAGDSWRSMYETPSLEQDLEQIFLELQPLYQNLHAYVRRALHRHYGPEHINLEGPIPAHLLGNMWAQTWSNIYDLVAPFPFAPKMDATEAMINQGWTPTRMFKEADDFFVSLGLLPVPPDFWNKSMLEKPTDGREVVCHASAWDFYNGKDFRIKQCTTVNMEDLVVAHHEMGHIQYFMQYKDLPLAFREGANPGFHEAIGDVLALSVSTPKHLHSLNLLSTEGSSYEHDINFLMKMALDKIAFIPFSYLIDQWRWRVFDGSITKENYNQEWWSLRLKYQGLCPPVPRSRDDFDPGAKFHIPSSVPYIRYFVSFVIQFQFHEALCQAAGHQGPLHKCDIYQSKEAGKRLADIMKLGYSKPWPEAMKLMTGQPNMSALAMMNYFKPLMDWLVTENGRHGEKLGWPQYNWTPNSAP
Kind of data set: Kinetics of benzoyl-Phe-Ala-Pro hydrolysis (Example 6). It is filed as biochemical. Conditions: for V (reaction velocity): 37° C., 10 minutes.

Data set [2] in a line: Solvent extraction of substrate and remnant product from acidified reaction mixture. It is filed as physicochemical. The text has this: While a variety of organic solvents may be suitable for the extraction step, it is preferred to employ toluene.
For data set [3], the system named is ACE. Nature of the data set: Response of 3H-benzoylPheAlaPro hydrolysis to ions. In kind it is biochemical. On the procedure: An even more sensitive assay for ACE activity has been developed using the novel compound ^3 H-benzoylPheAlaPro as substrate. This new substrate can be used to assay ACE in human urine in incubations as short as 15 minutes. The response of this substrate to ions is strikingly different from the response of HipHisLeu. […] This difficulty has been solved by the proper choice of extracting solvent. While a variety of organic solvents may be suitable for the extraction step, it is preferred to employ toluene. Approximately 88% of ^3 H-benzoylPhe enters the toluene phase while only 6% of the unhydrolyzed substrate enters the toluene phase, when toluene and the acidified reaction mixtures are in approximately equal volumes at room temperature.
The enzyme is active over a broad pH range with a maximum around pH 8.0, but is at least about 50% active in the range pH 7.0-pH 8.8, for both HipHisLeu and benzoylPheAlaPro. Although the enzyme is active in a variety of buffer systems known in the art, it is preferred for convenience, when using benzoylPheAlaPro as substrate, to conduct the assays in 0.05 M Hepes buffer, pH 8.0 containing 0.15 M sodium chloride. Detailed protocols for carrying out the assay are given in the examples. […] The preferred concentration range is 1×10^-9 M to 7×10^-5 M.

Data set [4] has as its target T1, Guinea pig serum ACE. Nature of the data set: Kinetics of sulfate-stimulated HipHisLeu hydrolysis (Example 4). It is filed as biochemical. To be noted: for V (reaction velocity): pH 8.0, 0.1 M NaCl, 37° C., 10 minutes; for V (reaction velocity) / 1/V: 0.75 M Na2 SO4; for 1/V: 0.1 M NaCl. On the procedure: In each assay, 50 μl of Guinea pig serum diluted 1-20 (v/v) in the reaction buffer was mixed with 50 μl of buffer containing sufficient ^3 H-HipHisLeu to provide approximately 100,000 cpm total, together with sufficient unlabeled HipHisLeu to produce the desired substrate concentrations, as indicated in Table 2. […] The reaction mixture was then extracted with 1 ml ethyl acetate. 500 μl of the ethyl acetate fraction was sampled and counted in a scintillation counter.

Another data set has as its system ACE from rabbit lung. Conditions: removal of sodium chloride from the reaction medium; cited from earlier work.
The subject of data set [5] is ACE. Nature of the data set: Apparent Km for HipHisLeu without sulfate. In kind it is biochemical.
For data set [6], the target named is ACE (Homo sapiens, UniProt P12821). To be noted: chloride absent; cited from earlier work.

Molecules are shown by their SMILES. Peptide text beside a SMILES is read from it. * marks the point of attachment. Bz = O=C(c1ccccc1)*

Sequence of ACE (Homo sapiens, UniProt P12821) (P12821 30-1306, species assumed): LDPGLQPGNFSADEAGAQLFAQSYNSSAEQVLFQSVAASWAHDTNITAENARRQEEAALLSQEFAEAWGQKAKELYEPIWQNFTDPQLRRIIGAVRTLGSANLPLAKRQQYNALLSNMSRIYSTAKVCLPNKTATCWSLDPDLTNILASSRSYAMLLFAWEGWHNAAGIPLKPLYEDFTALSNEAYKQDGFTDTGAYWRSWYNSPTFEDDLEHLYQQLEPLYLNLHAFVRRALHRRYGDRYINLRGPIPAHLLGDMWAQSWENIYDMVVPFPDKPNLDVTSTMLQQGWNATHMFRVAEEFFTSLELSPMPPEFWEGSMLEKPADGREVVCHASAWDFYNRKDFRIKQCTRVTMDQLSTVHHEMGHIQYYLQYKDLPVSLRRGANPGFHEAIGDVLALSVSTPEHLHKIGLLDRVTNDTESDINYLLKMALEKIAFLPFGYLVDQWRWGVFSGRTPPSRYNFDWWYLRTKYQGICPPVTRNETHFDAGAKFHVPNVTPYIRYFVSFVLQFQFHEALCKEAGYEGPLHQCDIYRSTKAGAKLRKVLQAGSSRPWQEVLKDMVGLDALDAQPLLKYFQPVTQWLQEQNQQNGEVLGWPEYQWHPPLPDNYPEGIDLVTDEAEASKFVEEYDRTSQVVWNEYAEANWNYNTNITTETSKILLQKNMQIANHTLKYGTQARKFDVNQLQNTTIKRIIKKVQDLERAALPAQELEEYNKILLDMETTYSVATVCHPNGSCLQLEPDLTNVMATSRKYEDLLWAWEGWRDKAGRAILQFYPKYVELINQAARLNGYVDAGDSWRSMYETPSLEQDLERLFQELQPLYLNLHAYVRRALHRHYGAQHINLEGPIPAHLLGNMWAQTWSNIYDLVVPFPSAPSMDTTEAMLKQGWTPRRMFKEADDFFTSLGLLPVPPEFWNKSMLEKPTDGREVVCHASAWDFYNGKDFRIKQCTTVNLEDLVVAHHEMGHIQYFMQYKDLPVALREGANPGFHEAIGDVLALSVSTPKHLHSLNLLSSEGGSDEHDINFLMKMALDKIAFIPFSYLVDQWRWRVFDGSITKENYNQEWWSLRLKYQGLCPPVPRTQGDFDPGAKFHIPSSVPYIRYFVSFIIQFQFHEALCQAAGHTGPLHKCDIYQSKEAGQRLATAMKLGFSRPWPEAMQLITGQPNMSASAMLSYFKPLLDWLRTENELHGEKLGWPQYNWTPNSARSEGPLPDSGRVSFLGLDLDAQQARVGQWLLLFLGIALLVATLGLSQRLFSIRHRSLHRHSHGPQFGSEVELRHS

As to `C[C@H](NC(=O)[C@H](Cc1ccccc1)NC(=O)c1ccccc1)C(=O)N1CCC[C@H]1C(=O)O` [benzoylPheAlaPro, benzoyl-Phe-Ala-Pro] (Bz-Phe-Ala-Pro-OH), the Vmax at Guinea pig serum ACE [1] (0.05 M Hepes, pH 8.0, 0.15 M NaCl, Guinea pig serum diluted 1:1000) came out at 10 pmol/min/mL. In addition, the Km on Guinea pig serum ACE [1] (0.05 M Hepes, pH 8.0, 0.15 M NaCl, Lineweaver and Burke plot, read-out: apparent Km) stood at 14 µM. Further, the 1/V is 1.50 mL·min/pmol at Guinea pig serum ACE [1] (BenzPheAlaPro concentration 1.0 μM), 0.48 mL·min/pmol on Guinea pig serum ACE [1] (BenzPheAlaPro concentration 5.0 μM), 0.24 mL·min/pmol at Guinea pig serum ACE [1] (BenzPheAlaPro concentration 10.0 μM) and 0.11 mL·min/pmol on Guinea pig serum ACE [1] (BenzPheAlaPro concentration 66.7 μM). For the same compound, the V (reaction velocity) came to 0.67 pmol/min/mL at Guinea pig serum ACE [1] (BenzPheAlaPro concentration 1.0 μM, 0.05 M Hepes, pH 8.0, 0.15 M NaCl); 2.08 pmol/min/mL on Guinea pig serum ACE [1] (BenzPheAlaPro concentration 5.0 μM, 0.05 M Hepes, pH 8.0, 0.15 M NaCl); 4.17 pmol/min/mL on Guinea pig serum ACE [1] (BenzPheAlaPro concentration 10.0 μM, 0.05 M Hepes, pH 8.0, 0.15 M NaCl); 9.09 pmol/min/mL on Guinea pig serum ACE [1] (BenzPheAlaPro concentration 66.7 μM, 0.05 M Hepes, pH 8.0, 0.15 M NaCl). The “extraction into ethyl acetate” value in data set [2] (reaction terminated with dilute hydrochloric acid) is listed as “almost quantitatively”. Moreover, the “fraction entering the toluene phase” value in data set [2] (toluene and acidified reaction mixture in approximately equal volumes at room temperature) was determined as 6%. Moreover, the “effect of sodium sulfate on hydrolysis” value in the data set with ACE [3] (3H-benzoylPheAlaPro as substrate) is given as “not stimulatory”. The “increase of apparent reaction velocity by added sodium chloride” value with ACE [3] (added sodium chloride at 0.05 M, 0.05 M Hepes buffer at pH 8.0) is listed as “approximately 3 fold”.

With `CC(C)C[C@H](NC(=O)[C@H](Cc1c[nH]cn1)NC(=O)CNC(=O)c1ccccc1)C(=O)O` [HipHisLeu] (Bz-Gly-His-Leu-OH), the Michaelis constant (Km) on Guinea pig serum ACE [4] (0.05 M Hepes, pH 8.0, 0.1 M NaCl and 0.75 M Na2 SO4, Lineweaver and Burke plot, read-out: apparent Km) was 177 µM; in the data set on ACE [5], roughly 2600 µM. The “V (reaction velocity)” value was found to be 0.30 nmol/min/mL at Guinea pig serum ACE [4] (HipHisLeu concentration 0.01 mM, 0.05 M Hepes); 0.52 nmol/min/mL on Guinea pig serum ACE [4] (HipHisLeu concentration 0.02 mM, 0.05 M Hepes); 0.74 nmol/min/mL on Guinea pig serum ACE [4] (HipHisLeu concentration 0.03 mM, 0.05 M Hepes); 1.28 nmol/min/mL on Guinea pig serum ACE [4] (HipHisLeu concentration 0.04 mM, 0.05 M Hepes); 1.14 nmol/min/mL at Guinea pig serum ACE [4] (HipHisLeu concentration 0.05 mM, 0.05 M Hepes); 1.28 nmol/min/mL at Guinea pig serum ACE [4] (HipHisLeu concentration 0.06 mM, 0.05 M Hepes). In addition, the “V (reaction velocity)” value worked out at 2.14 nmol/min/mL at Guinea pig serum ACE [4] (HipHisLeu concentration 0.07 mM, 0.05 M Hepes) and 1.76 nmol/min/mL on Guinea pig serum ACE [4] (HipHisLeu concentration 0.08 mM, 0.05 M Hepes). In addition, the 1/V is 3.33 mL·min/nmol on Guinea pig serum ACE [4] (HipHisLeu concentration 0.01 mM); 1.92 mL·min/nmol on Guinea pig serum ACE [4] (HipHisLeu concentration 0.02 mM); 1.35 mL·min/nmol on Guinea pig serum ACE [4] (HipHisLeu concentration 0.03 mM); 0.78 mL·min/nmol at Guinea pig serum ACE [4] (HipHisLeu concentration 0.04 mM); 0.88 mL·min/nmol at Guinea pig serum ACE [4] (HipHisLeu concentration 0.05 mM); 0.78 mL·min/nmol at Guinea pig serum ACE [4] (HipHisLeu concentration 0.06 mM). For the same compound, the 1/V at Guinea pig serum ACE [4] (HipHisLeu concentration 0.07 mM) amounted to 0.47 mL·min/nmol; at Guinea pig serum ACE [4] (HipHisLeu concentration 0.08 mM), 0.57 mL·min/nmol. The inhibition of hydrolysis was 92% in the data set with ACE from rabbit lung and 86% at ACE [6].

One may read the Vmax as the top rate of the reaction or transport when substrate is in excess. In general, Km refers to the substrate concentration at which the rate is half of its maximum.
